In paper doi:10.1101/2025.11.20.689572v1 (biorxiv, 2025):
Where two headings read alike, the source gives them in different places.

What was measured:
5-HT1D = target: T1, 5-HT1D (Homo sapiens, UniProt P28221); test: competitive radioligand binding, HEK293 membranes
T1 construct: gene HTR1D; full-length receptor; HEK293 with TRUPATH sensors (function)

HTR2C [1] = target: T2, HTR2C (Homo sapiens, UniProt P28335); test: cell-based; parameters: species or system HEK293; Fluo-4 Direct calcium mobilization on FLIPR-Tetra; details: HEK293, read-out: N-Desmethyl Xanomeline; Assay=Calcium; agonist mode, % of control agonist
T2 sequence (P28335 1-458): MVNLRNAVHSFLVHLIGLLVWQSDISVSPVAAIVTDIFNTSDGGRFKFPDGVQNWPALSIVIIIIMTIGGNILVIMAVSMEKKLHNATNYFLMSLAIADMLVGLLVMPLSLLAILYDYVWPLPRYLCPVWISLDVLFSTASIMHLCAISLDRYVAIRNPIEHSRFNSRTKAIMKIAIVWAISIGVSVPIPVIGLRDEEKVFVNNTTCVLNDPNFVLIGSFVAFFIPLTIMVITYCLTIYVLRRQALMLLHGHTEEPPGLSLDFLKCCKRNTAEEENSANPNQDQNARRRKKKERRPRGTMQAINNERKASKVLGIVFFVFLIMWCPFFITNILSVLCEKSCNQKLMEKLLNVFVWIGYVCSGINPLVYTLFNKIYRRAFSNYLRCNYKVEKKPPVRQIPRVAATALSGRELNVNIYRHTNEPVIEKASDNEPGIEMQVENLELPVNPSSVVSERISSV

CHRM1 = target: T3, CHRM1 (Homo sapiens, UniProt P11229); test: cell-based; parameters: species or system HEK293; TRUPATH BRET2 G-protein dissociation; antagonist mode against agonist EC80; details: HEK293, read-out: N-Desmethyl Xanomeline, Assay=Gq; agonist mode, % of control agonist
T3 sequence (P11229 1-460): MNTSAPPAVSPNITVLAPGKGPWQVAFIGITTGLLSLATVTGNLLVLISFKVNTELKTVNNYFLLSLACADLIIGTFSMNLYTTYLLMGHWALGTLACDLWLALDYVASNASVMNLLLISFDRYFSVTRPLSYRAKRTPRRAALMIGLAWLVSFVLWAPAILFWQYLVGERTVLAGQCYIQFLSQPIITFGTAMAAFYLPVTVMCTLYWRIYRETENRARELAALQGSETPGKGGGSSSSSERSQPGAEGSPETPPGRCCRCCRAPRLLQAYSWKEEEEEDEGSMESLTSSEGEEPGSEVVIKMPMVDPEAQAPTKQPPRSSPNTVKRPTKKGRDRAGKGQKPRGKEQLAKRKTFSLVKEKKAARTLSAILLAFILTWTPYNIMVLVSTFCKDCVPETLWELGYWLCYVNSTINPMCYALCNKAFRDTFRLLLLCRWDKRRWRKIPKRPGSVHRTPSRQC

HTR2C [2] = target: T2, HTR2C; test: cell-based; parameters: species or system HEK293; TRUPATH BRET2 G-protein dissociation; antagonist mode against agonist EC80; details: HEK293, read-out: N-Desmethyl Xanomeline, Assay=Gq; agonist mode, % of control agonist
HTR2C [3] = target: T2, HTR2C; test: cell-based; parameters: species or system HEK293; Fluo-4 Direct calcium mobilization on FLIPR-Tetra; details: Assay=Calcium; agonist mode
CHRM3 = CHRM3 (Homo sapiens, UniProt P20309); test: cell-based; parameters: species or system HTLA; PRESTO-Tango beta-arrestin2 recruitment, luciferase luminescence, concentration-response; details: Assay=Tango; agonist mode
Chain of CHRM3 (P20309 whole entry): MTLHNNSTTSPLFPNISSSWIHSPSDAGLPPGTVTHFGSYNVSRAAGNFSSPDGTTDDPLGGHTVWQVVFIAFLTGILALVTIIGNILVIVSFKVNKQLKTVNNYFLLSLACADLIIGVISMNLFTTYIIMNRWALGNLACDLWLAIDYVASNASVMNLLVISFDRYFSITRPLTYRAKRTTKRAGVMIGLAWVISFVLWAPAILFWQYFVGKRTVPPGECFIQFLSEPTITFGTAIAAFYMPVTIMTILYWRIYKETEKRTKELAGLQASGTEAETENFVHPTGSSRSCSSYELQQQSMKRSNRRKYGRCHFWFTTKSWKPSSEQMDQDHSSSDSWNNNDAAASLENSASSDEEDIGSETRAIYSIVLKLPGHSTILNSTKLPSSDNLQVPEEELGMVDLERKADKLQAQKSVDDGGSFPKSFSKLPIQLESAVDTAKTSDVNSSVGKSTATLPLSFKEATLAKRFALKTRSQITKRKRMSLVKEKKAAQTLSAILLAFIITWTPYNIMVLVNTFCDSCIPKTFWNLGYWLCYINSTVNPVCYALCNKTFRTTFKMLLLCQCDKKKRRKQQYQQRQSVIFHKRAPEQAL

SSTR4 = SSTR4 (Homo sapiens, UniProt P31391); test: cell-based; parameters: species or system HTLA; PRESTO-Tango beta-arrestin2 recruitment, luciferase luminescence, concentration-response; details: Assay=Tango; agonist mode
Chain of SSTR4 (P31391 whole entry): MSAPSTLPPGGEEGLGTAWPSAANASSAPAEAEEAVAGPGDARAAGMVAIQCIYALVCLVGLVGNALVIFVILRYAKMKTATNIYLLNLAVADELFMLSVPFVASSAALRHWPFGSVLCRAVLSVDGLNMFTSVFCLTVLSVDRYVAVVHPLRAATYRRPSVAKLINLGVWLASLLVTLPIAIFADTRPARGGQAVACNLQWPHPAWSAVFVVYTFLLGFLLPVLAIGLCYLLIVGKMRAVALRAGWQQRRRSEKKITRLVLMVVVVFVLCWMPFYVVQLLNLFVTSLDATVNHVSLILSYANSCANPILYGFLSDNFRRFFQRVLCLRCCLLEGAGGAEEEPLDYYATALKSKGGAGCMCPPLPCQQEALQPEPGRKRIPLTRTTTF

HTR2A = HTR2A (Homo sapiens, UniProt P28223); test: cell-based; parameters: Fluo-4 Direct calcium mobilization on FLIPR-Tetra; details: HEK293, read-out: N-Desmethyl Xanomeline; Assay=Calcium; agonist mode, % of control agonist
Chain of HTR2A (P28223 whole entry): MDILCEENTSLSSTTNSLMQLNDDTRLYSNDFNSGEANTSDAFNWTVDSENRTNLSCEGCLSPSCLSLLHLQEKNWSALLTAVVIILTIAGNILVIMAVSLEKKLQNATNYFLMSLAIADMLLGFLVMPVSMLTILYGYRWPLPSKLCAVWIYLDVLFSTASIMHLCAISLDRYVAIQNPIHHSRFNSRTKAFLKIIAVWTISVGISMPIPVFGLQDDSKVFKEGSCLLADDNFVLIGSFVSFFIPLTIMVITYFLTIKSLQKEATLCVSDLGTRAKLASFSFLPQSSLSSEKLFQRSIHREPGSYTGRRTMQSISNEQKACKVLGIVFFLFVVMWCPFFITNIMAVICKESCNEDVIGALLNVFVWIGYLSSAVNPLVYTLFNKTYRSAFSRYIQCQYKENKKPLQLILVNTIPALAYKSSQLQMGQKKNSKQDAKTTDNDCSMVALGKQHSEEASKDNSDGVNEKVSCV

β2 = β2 (Homo sapiens, UniProt P07550); test: competitive radioligand binding, HEK293 membranes; parameters: gene ADRB2; full-length receptor; HEK293 cell membranes
Chain of β2 (P07550 whole entry): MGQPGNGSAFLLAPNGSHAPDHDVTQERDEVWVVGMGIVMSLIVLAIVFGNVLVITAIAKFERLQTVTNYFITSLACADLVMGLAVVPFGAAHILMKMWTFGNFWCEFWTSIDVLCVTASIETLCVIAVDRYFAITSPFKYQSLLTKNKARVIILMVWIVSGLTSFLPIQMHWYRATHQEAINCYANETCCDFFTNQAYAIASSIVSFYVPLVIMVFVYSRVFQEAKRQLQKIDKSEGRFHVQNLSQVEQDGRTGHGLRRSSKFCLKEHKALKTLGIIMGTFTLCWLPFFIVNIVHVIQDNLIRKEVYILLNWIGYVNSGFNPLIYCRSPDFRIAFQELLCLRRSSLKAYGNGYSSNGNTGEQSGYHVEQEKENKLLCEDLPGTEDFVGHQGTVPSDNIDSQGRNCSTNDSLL
Source text: competitive radioligand binding, HEK293 membranes on β2

α1A = α1A (Homo sapiens, UniProt P35348); test: competitive radioligand binding, HEK293 membranes; parameters: gene ADRA1A; full-length receptor; HEK293 cell membranes
Chain of α1A (P35348 whole entry): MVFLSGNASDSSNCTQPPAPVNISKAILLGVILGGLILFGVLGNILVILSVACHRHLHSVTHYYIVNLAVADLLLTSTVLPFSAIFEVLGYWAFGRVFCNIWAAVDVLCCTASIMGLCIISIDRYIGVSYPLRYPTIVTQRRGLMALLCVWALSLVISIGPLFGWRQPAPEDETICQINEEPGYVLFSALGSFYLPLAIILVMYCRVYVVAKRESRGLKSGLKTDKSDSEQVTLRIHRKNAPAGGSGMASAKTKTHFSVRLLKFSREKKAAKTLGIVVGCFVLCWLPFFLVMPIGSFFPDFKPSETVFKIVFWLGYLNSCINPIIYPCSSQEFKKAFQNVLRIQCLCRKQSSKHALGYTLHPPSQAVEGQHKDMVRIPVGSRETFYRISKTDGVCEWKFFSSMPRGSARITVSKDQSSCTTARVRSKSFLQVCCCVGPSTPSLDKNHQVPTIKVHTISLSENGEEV
Source text: competitive radioligand binding, HEK293 membranes on α1A

5-HT5A = target: T4, 5-HT5A (Homo sapiens, UniProt P47898); test: competitive radioligand binding, HEK293 membranes
T4 construct: gene HTR5A; full-length receptor; HEK293 cell membranes
T4 sequence (P47898 whole entry): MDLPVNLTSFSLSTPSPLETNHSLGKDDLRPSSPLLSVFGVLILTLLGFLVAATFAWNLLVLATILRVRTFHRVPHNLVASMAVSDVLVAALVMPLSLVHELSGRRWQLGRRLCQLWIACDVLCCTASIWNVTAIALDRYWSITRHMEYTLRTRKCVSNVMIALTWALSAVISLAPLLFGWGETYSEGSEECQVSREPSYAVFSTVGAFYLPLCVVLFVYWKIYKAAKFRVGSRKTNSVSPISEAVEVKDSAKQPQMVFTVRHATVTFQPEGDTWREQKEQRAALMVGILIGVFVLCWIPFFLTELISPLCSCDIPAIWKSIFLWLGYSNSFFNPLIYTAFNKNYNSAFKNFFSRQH
Source text: competitive radioligand binding, HEK293 membranes on 5-HT5A

DRD4 = target: T5, DRD4 (Homo sapiens, UniProt P21917); test: cell-based; parameters: species or system HTLA; PRESTO-Tango beta-arrestin2 recruitment, luciferase luminescence, concentration-response; details: Assay=Tango; agonist mode
T5 sequence (P21917 1-419): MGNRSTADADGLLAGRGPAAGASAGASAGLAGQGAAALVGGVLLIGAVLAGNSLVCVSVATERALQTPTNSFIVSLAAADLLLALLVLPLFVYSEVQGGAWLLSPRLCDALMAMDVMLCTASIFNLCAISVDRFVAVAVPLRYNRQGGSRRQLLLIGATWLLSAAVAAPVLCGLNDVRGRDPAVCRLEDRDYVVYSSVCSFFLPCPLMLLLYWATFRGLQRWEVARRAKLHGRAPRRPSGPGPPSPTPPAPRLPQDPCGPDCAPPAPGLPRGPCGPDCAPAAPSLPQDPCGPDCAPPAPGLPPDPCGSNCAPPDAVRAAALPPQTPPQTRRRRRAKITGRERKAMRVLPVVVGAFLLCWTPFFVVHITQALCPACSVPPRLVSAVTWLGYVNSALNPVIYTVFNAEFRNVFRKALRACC

T1 sequence (P28221 whole entry): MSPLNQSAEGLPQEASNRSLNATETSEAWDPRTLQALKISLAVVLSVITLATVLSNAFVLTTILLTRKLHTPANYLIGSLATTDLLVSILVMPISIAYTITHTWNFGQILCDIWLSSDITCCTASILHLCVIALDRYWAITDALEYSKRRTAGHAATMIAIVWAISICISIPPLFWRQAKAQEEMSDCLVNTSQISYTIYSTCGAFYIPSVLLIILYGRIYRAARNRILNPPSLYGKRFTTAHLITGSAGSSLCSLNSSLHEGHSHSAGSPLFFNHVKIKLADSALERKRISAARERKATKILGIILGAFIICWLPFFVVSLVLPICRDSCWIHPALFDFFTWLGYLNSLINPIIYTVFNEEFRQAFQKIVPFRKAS

Compound `CCCCCCOc1nsnc1C1=CCCNC1` [N-desmethylxanomeline] has a Ki (5-HT1D) of 38.9 nM, an Emax (HTR2C [1]) of 59% and an Emax (CHRM1) of 95.9%. For the same compound, the Emax (HTR2C [2]) was 106%, the EC50 (HTR2C [3]) was 1090 nM and the EC50 (CHRM3) was 104 nM. It also gave an EC50 (SSTR4) of 931 nM, an Emax (HTR2A) of 63.4% and a Ki (β2) of 832 nM. The Ki (α1A) was 282 nM.
Compound `CCCCCCOc1nsnc1C1=CCCN(C)C1` [Xanomeline] has a Ki (5-HT5A) of 794 nM and an EC50 (DRD4) of 4.8 µM.
